Measurements reported in patent publication US8093299B2, “Methods of treating bowel disorders” (Amgen Inc., priority 2007, dated 2012).
“And” between values parts separate entries of the source, which are not always exact repeats. Equal entries are not always repeated. “Also recorded” adds a separate entry of the source.

Experiments:
[1] = tested on: colitis in mdr1a-/- mice induced by H. bilis; experiment: Colitis in mdr1a-/- mice infected with Helicobacter bilis (clinical score, disease onset, histology); assay type: in vivo, mouse; details: for Total LI score (Max = 12), individual animals / GI Inflammation LI DISTAL, individual animals / GI Inflammation LI MIDDLE, individual animals / GI Inflammation LI PROXIMAL, individual animals: listed as R-B; for GI Inflammation LI DISTAL, individual animals / GI Inflammation LI MIDDLE, individual animals / GI Inflammation LI PROXIMAL, individual animals: score 0-4; for disease onset compared to vehicle control group: Log-Rank test, p-value=0.04
[2] = Serum calcium and phosphorus in mdr1a-/- colitis study; assay type: in vivo, mouse; details: day 38
Procedure: (§1) All mice were necropsied on day 38 post initial inoculation. Mice were euthanized by CO2 asphyxiation. Blood was obtained by intracardiac puncture and collected in serum separator tubes. Serum was harvested and stored at −80° C. Colons were dissected below the cecum and just above the anus, and the contents of the lumen were removed. Sections of the proximal, middle, and distal colon regions were fixed in 10% neutral buffered formalin for histopathological analysis.
(§2) Serum clinical chemistry analysis was performed on the Olympus AU400 using standard tests and protocols. Calcium and phosphorus measurements were performed on undiluted serum for all samples. Serum cytokines and chemokines were assayed by Lincoplex mouse cytokine/chemokine muliplex immunoassasy (Millipore; Billerica, Mass.) per manufacturer instructions.
(§3) Results for serum analytes were expressed as the mean±standard error of the mean (SEM). A one-way ANOVA with Tukey's post test was performed using GraphPad Prism. A p-value of 0.05 was used in the calculation to determine whether there were significant differences between any two groups. Results for disease onset were expressed as a standard survival curve. A Log-Rank (Mantel-Cox) Test was performed using GraphPad Prism to determine significance. A p-value of 0.05 was used in the calculation to determine whether there were significant differences between any two groups. Results for clinical score and histology score were expressed as the mean±SEM. A Cochran-Mantel-Haenszel mean score test was performed using SAS software. A p-value of 0.05 was used in the calculation to determine whether there were significant differences between any two groups.

[3] = tested on: 5% DSS induced colitis in SJL/J mice; experiment: DSS-induced colitis in mice, histopathologic inflammation score of large intestine; assay type: in vivo, mouse
Description: Animals. Female SJL/J mice aged 8-10 weeks were used for this study, purchased from Jackson Laboratories (Bar Harbour, Me.). Female Spraque-Dawley rats (approximately 150-300 grams) were purchased from Charles River Laboratories Inc. (Wilmington, Mass.). Mdr1a−/− mice (FVB.129P2-Abcb1a^tm1BorN7), weight 20-21 g, 8 weeks at initiation of experiments, were housed and maintained (5 per cage) in the animal facility at Amgen Washington. All animals were cared for according to the standard protocols of the Amgen Institutional Animal Care and Use Committee.
Chemical reagents. Dextran sodium sulfate (DSS) with molecular mass 36-50 kDa was purchased from ICN Chemicals, Aurora, Ohio. The DSS solution was prepared as a 5% w/v solution in sterile water (Baxter Healthcare Corporation) and sterile filtered through a 0.45 μm filter before being added to drinking water. Water for the negative control groups was similarly filtered. FK506, (also known as Tacrolimus, active ingredient in Prograf®), chemical name [3S-[3R*[E(1S*,3S*,4S*)],4S*,5R*,8S*,9E,12R*,14R*,15S*,16R*,18S*,19S*,26aR*]]-5,6,8,11,12,13,14,15,16,17,18,19,24,25,26,26a-hexadecahydro-5,19-dihydroxy-3-[2-(4-hydroxy-3-methoxycyclohexyl)-1-methylethenyl]-14,16-dimethoxy-4,10,12,18-tetramethyl-8-(2-propenyl)-15,19-epoxy-3H-pyrodi[2,1-c][1,4]oxaazacyclotricosine-1,7,20,21(4H, 23H)-tetrone monohydrate, was used as a positive control for the inflammation treatment. Tacrolimus is a macrolide immunosuppressant produced by Streptomyces tsukubaensis. The solution of FK506 (Prograf®, Astellas) was prepared as follows: 0.1 mg/ml solution in phosphate buffered saline (PBS) was prepared by diluting 5 mg/ml stock solution. The animals were dosed with FK506 at 1 mg/kg in 200 μl of PBS.
Calcimimetic solutions (Compound A, 3-(2-chlorophenyl)-N-((1R)-1-(3-(methyloxy)phenyl)ethyl)-1-propanamine, Compound B, (1R)-N-((6-(methyloxy)-4′-(trifluoromethyl)-3-biphenylyl)methyl)-1-phenylethanamine, Compound C, N-(2-chloro-5-((((1R)-1-phenylethyl)amino)methyl)phenyl)-5-methyl-3-isoxazolecarboxamide, and Compound D, N-(2-chloro-5-((((1R)-1-phenylethyl)amino)methyl)phenyl)-2-pyridinecarboxamide) were formulated and dosed in free base equivalents at volumes determined by the pharmacologist. Formulation vehicle was 20% (w/v) Captisol (β-Cyclodextrin Sulfobutyl Ether Sodium Salt, Research Grade from CyDex, Inc.) in water with a final pH of 2.0-2.2 at room temperature, adjusted with HCl and NaOH as required. Final concentrations of DMSO never exceeded 0.1% (v/v).
DSS colitis in mice. All experiments were performed on groups of 8 to 10 SJL-J mice, housed in the same cage. For disease induction, mice were given a 5% DSS ad libitum as drinking water for 9 days.
Postmortem evaluation. Mice and rats were euthanized by CO2 asphyxiation. The large intestine were removed from the carcass, evaluated for gross lesions and three individual non-adjacent segments of proximal, middle and distal large intestine 2 centimeters long were immersed in the Zinc Formalin fix for 24 hours. At the end of 24 hours the sections were washed with tap water and put into 70% ethanol. Each section was then cut into three 3 mm pieces (9 pieces per animal), processed into paraffin blocks, and sections were cut in 5 μm sections and stained with hematoxylin and eosin.
Histopathologic changes of the proximal, middle, and distal small and large intestine was scored as a global assessment of inflammation based on inflammatory infiltrate, edema, mucosal erosions or ulcerations as described in Table 6.
For disease induction, treated mice were given 5% DSS in water ad libitum as drinking water for 9 days as described in Example 1 and were concurrently treated orally during that period with one of the treatments listed in Table 8.
FIG. 1 and Table 8 summarize the effect of the calcimimetic compound B on colonic inflammation in 5% DSS induced colitis. Animals were euthanized with carbon dioxide on day nine post treatment. […]

IP-10 = experiment: Serum IP-10 in mdr1a-/- colitis study; assay type: in vivo, mouse
Procedure: as §1, §2, §3

[4] = Absorption from the gut into the bloodstream
[5] = R-Compound B 10 and 3 mg/kg groups
[6] = 10 mg/kg oral, 5% DSS 9 days, vs Captisol vehicle, p<0.01
[7] = 30 mg/kg oral, 5% DSS 9 days, vs Captisol vehicle

With COc1ccc(CN[C@H](C)c2ccccc2)cc1-c1ccc(C(F)(F)F)cc1 [Compound B, (1R)-N-((6-(methyloxy)-4′-(trifluoromethyl)-3-biphenylyl)methyl)-1-phenylethanamine] the “Average LI score” value ([1]; 3 mg/kg PO daily, day 38) was 1.6, the “GI Inflammation LI DISTAL, Segment Mean” value ([1]; 3 mg/kg PO daily, day 38) was 0.60 and the “GI Inflammation LI MIDDLE, Segment Mean” value ([1]; 3 mg/kg PO daily, day 38) was 0.60. For the same molecule, the “GI Inflammation LI PROXIMAL, Segment Mean” value ([1]; 3 mg/kg PO daily, day 38) was 0.40, the “Total LI score (Max = 12), individual animals” value ([1]; 3 mg/kg PO daily, day 38) was 0 (8×) and 8 (2×) and the “GI Inflammation LI DISTAL, individual animals” value ([1]; 3 mg/kg PO daily, day 38) was 0 (8×) and 3 (2×). The “GI Inflammation LI MIDDLE, individual animals” value ([1]; 3 mg/kg PO daily, day 38) was 0 (8×) and 3 (2×), the “GI Inflammation LI PROXIMAL, individual animals” value ([1]; 3 mg/kg PO daily, day 38) was 0 (8×) and 2 (2×) and the “day on which an animal began showing clinical signs of colitis (disease onset)” value ([1]; 3 mg/kg PO daily, first and second animal, listed as R-Compound B) was 17 days and 31 days. For the same molecule, the “day on which animals began showing clinical symptoms (disease onset)” value ([1]; 10 mg/kg PO daily) was 32 days, the “disease onset compared to vehicle control group” value ([1]; 10 mg/kg PO daily) was “significantly different” and the “disease onset compared to vehicle control group” value ([1]; 10 mg/kg PO daily, listed as R-Compound B) was “statistically significant difference”. For the same molecule, the “Average LI score” value ([1]; 10 mg/kg PO daily, day 38) was 0.9, the “GI Inflammation LI DISTAL, Segment Mean” value ([1]; 10 mg/kg PO daily, day 38) was 0.30 and the “GI Inflammation LI MIDDLE, Segment Mean” value ([1]; 10 mg/kg PO daily, day 38) was 0.20. For the same molecule, the “GI Inflammation LI PROXIMAL, Segment Mean” value ([1]; 10 mg/kg PO daily, day 38) was 0.40, the “Total LI score (Max = 12), individual animals” value ([1]; 10 mg/kg PO daily, day 38) was 2 and 0 (8×) and 7 and the “GI Inflammation LI DISTAL, individual animals” value ([1]; 10 mg/kg PO daily, day 38) was 0 (9×) and 3. The “GI Inflammation LI MIDDLE, individual animals” value ([1]; 10 mg/kg PO daily, day 38) was 0 (9×) and 2, the “GI Inflammation LI PROXIMAL, individual animals” value ([1]; 10 mg/kg PO daily, day 38) was 2 (2×) and 0 (8×) and the “clinical scores compared to vehicle group” value ([1]; 10 mg/kg PO daily, final day (day 38), p<0.05) was “significantly lower clinical scores”. For the same molecule, the “anal inflammation score of animals showing clinical symptoms” value [1, 5] was “none had an anal inflammation score above moderate”, the development of diarrhea [1, 5] was “no animal developed diarrhea” and the “number of animals with clinical symptoms of disease on the final day of the study” value ([1]; day 38, per treatment group (S-Compound B 10 mg/kg, n=5; R-Compound B 10 mg/kg and 3 mg/kg, n=10 each)) was “one”. For the same molecule, the “percentage of animals with colon pathology” value ([1]; each R-Compound B group (10 and 3 mg/kg)) was 20%, the “overall effect on development, onset, incidence and severity of colitis” value ([1]; mdr1a-/- mice, 10 or 3 mg/kg PO daily, listed as R-Compound B) was “attenuates the development of colitis; also recorded: delayed the onset of colitis and reduced the severity of disease; also recorded: reduced the incidence and severity of disease; also recorded: inhibited the development and severity of colitis” and the “animals with colitis / colon pathology by histology” value ([1]; per group: R-Compound B 10 and 3 mg/kg each, S-Compound B 10 mg/kg) was 2 out of 10. For the same molecule, the “serum phosphorus compared to the S-Compound B treated group only” value ([2]; 3 mg/kg PO daily) was “significant elevation”, the “serum calcium compared to CTLA4 and vehicle control groups” value ([2]; 10 mg/kg PO daily) was “significant calcium reductions” and the “serum phosphorus levels compared to all control groups” value ([2]; 10 mg/kg PO daily) was “significantly elevated”. For the same molecule, the “serum calcium levels compared to uninfected controls” value ([2]; both R-Compound B groups (10 and 3 mg/kg PO daily)) was “significantly reduced”, the “animals lacking inflammatory changes (colon normal)” value ([3]; 10 mg/kg oral, 5% DSS 9 days) was “Four out of ten” and the “mean large intestine inflammatory score, combined segments” value [3, 6] was “statistically significant decreased”. For the same molecule, the “mean large intestine inflammatory score, middle segment” value [3, 6] was “statistically significant decreased”, the “mean large intestine inflammatory score, distal segment” value ([3]; 10 mg/kg oral, 5% DSS 9 days, vs Captisol vehicle, p<0.05) was “statistically significant decreased” and the “Animals with colonic inflammation/total animals” value ([3]; 5% DSS 9 days, SJL/J mice, oral, Compound B 10 mg/kg, FK 506 1 mg/kg) was 6/10. For the same molecule, the “mean inflammatory score in combined colonic segments compared to FK 506 treatment” value ([3]; Compound B 10 mg/kg vs FK 506 1 mg/kg, oral, 5% DSS) was “statistically significant (p<0.05) decrease”, the “difference in production of serum IP-10 vs vehicle control group” value (IP-10; 10 mg/kg PO daily, p=0.06) was “approached significance” and the “elevation of serum IP-10” value (IP-10; treatment groups vs vehicle treated animals) was “less elevation”.

For Cc1cc(C(=O)Nc2cc(CN[C@H](C)c3ccccc3)ccc2Cl)no1 [Compound C, N-(2-chloro-5-((((1R)-1-phenylethyl)amino)methyl)phenyl)-5-methyl-3-isoxazolecarboxamide], the “absorption from the gut into the bloodstream” value [4] was “not to be absorbed readily”, the “inflammation scores in all parts of colon compared to vehicle (FIG. 2)” value ([3]; 30 mg/kg oral, 5% DSS) was “reduce inflammation scores” and the “decrease in mean large intestine inflammatory score, combined” value [3, 7] was 30%. For the same molecule, the “decrease in mean large intestine inflammatory score, distal” value [3, 7] was 49%, the “decrease in mean large intestine inflammatory score, middle” value [3, 7] was 20% and the “decrease in mean large intestine inflammatory score, proximal” value [3, 7] was 15%.

For C[C@@H](NCc1ccc(Cl)c(NC(=O)c2ccccn2)c1)c1ccccc1 [Compound D, N-(2-chloro-5-((((1R)-1-phenylethyl)amino)methyl)phenyl)-2-pyridinecarboxamide], the “absorption from the gut into the bloodstream” value [4] was “not to be absorbed readily”, the “inflammation scores in all parts of colon compared to vehicle (FIG. 2)” value ([3]; 30 mg/kg oral, 5% DSS) was “reduce inflammation scores” and the “animals lacking inflammatory changes (colon normal)” value ([3]; 30 mg/kg oral, 5% DSS 9 days) was “Two out of eight”. For the same molecule, the “decrease in mean large intestine inflammatory score, combined” value [3, 7] was 48%, the “decrease in mean large intestine inflammatory score, distal” value [3, 7] was 68% and the “decrease in mean large intestine inflammatory score, middle” value [3, 7] was 29%. The “decrease in mean large intestine inflammatory score, proximal” value [3, 7] was 44%.
